Assay results taken from patent publication US20060251659A1, “Method for screening molecules that restore NOD1 activity in cells containing an NOD2 mutation that reduces or eliminates NOD1 activity” (priority 2005, published 2006).
Entries after “also recorded” stand apart in the source; their conditions may differ.

Key:
[1] = biological target: T1, Nod2 (Homo sapiens, UniProt Q9HC29); experiment: Nod2-dependent NF-κB luciferase reporter activation in transfected HEK293T cells; assay type: cell-based; conditions: for activation of Nod2 (NF-κB-driven luciferase reporter): muramyl peptides 10 nM up to 250 nM, HEK293T cells expressing Nod2, 24 h
T1 construct: expressed in transfected cells; host or cells: HEK293T
T1 sequence (Q9HC29 whole entry): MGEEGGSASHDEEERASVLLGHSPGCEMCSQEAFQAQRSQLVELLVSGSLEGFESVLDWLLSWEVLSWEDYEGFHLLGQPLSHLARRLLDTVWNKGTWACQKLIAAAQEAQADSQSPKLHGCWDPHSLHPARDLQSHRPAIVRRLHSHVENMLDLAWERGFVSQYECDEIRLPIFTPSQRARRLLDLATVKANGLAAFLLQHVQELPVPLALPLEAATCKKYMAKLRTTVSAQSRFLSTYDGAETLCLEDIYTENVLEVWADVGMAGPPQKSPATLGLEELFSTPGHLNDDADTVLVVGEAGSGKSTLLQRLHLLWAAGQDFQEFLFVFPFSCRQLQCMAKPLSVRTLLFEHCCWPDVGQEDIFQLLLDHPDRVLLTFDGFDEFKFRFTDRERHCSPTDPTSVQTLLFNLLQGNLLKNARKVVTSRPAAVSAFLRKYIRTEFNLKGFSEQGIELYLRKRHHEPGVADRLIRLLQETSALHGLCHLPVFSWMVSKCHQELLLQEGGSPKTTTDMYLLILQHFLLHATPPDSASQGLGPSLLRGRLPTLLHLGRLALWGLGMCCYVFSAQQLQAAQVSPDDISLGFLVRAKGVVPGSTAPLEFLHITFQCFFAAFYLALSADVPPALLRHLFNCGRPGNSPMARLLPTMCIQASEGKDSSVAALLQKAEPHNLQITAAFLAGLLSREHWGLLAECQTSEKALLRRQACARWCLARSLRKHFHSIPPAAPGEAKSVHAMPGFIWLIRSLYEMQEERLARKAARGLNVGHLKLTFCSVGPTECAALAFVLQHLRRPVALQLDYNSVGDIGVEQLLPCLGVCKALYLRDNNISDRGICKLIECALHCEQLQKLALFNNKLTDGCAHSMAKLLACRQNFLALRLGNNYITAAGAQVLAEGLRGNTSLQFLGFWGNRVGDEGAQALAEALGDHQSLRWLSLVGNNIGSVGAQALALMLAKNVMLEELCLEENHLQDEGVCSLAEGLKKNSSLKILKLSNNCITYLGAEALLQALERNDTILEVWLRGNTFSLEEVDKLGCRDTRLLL
Method: FIG. 1. Detection of MDP-derived muramyl peptides by Nod2. A, schematic representation of the muramyl peptides used in this study. B, Human HEK293 epithelial cells were transfected with several muramyl peptides (MDP, M-TriLys, Anh-M-TriLys, M-TetraLYS and Anh-M-TetraLYS) at the following concentrations: 10 nM (white bars), 50 nM (grey bars) or 250 nM (black bars) in the presence of an expression vector for Nod2 . The activity of a NF-κB-driven luciferase reporter gene was measured, and Nod2-dependent activation of the reporter gene in the presence of muramyl peptides was reported to the one obtained without stimulation with muramyl peptides. […] Experiments were performed three times with similar results.
In search for MDP-derived muramyl peptides that could stimulate the Nod2 signaling pathway, the inventors generated several molecules differing in the length of their peptidic moiety, including M-TriLys and M-TetraLys (FIG. 1A). These molecules were then tested for their ability to activate Nod2 using co-transfection assays in HEK293T epithelial cells and measuring NF-κB activity as a read-out (FIG. 1B). […] Here, a larger range of muramyl peptide concentration was used (10 nM up to 250 nM) to allow for the identification of even weak inducers of the Nod2 pathway.
HEK293T cells were cultured in DMEM containing 10% fetal calf serum. Prior to transfection, HEK293T cells were seeded into 24 well plates at a density of 1×10^5 cells/ml as described previously (26), MDP LD was from Calbiochem and reported to be 98% pure by TLC.
The expression plasmid for Nod2 has been previously described (27). The NF-κB luciferase reporter plasmid was from Stratagene. Transfections were carried out in […] cells as previously described (26).
Studies examining the synergistic activation of NF-κB by muramyl peptides in cells over expressing Nod2 were carried out as originally described by Inohara et al. (28). Briefly, HEK293T cells were transfected overnight with 10 ng of Nod2 plus 75 ng of NF-κB luciferase reporter plasmid. At the same time, muramyl peptides were added to cell culture medium and the synergistic NF-κB-dependent luciferase activation was then measured following 24 h of co-incubation. NF-κB-dependent luciferase assays were performed in duplicate and data represent at least 3 independent experiments.

[2] = tested on: PBMCs from healthy donors; experiment: Cytokine response of PBMCs from healthy donors (CTR); assay type: cell-based, human; conditions: 50 nM, overnight (18 hours)
Method: (§1) FIG. 2. Response to muramyl peptides of PBMCs from healthy donors (CTR), Crohn's disease patients without defects in Nod2 (Crohn's) or Crohn's disease patients homozygous for the frameshift mutation (Nod2 fs). IL-1β, TNF and IL-10 were measured from the cell culture medium. Intracellular IL-1α was measured from cell lysates. All muramyl peptides (all 50 nM) were added directly to the cell culture medium for 18 hours.
as §1, with “3.” for “2.”, “peptidoglycans” for “muramyl peptides”, “(Nod2fs).” for “(Nod2 fs).”, “at 1 μg/ml) and LPS (100 ng/ml)” for “50 nM)”
(§2) FIG. 5. Analysis of the synergistic activation of PBMCs by M-TriDAP plus either LPS or LTA. PBMCs from healthy donors (CTR), Crohn's disease patients without defects in Nod2 (Crohn's) or Crohn's disease patients homozygous for the frameshift mutation (Nod2 fs) were analyzed. Cells were stimulated either with M-TriDAP (MTP(DAP) on the figure), LPS or LTA alone or in combination; LPS+M-TriDAP or LTA+M-TriDAP with the agonists added simultaneously, IL-1β, TNF and IL-10 were measured from the cell culture medium. Intracellular IL-1α was measured from cell lysates, LPS (40 pg/ml), LTA (5 μg/ml) and M-TriDAP (50 nM) were added directly to the cell culture medium for 18 hours.
(§3) The six muramyl peptides characterized above (MDP, M-TriLys, M-TetraLys, anhydro-M-TriLys, anhydro-M-TetraLys and M-TriDAP) were used to stimulate PBMCs obtained from human blood. PBMCs from three groups of individuals were collected: healthy donors (CTR), Crohn's disease patients without Nod2 mutations (Crohn) and Crohn's disease patients carrying homozygous Nod2fs frameshift mutation (Nod2fs). […] IL-1β, IL-10 and TNFα were measured in the supernatant, while intracellular IL-1α was measured from cell lysates (FIG. 2). […]

[3] = tested on: PBMCs from Crohn's disease patients without Nod2 mutations; experiment: Cytokine response of PBMCs from Crohn's disease patients without Nod2 mutations; assay type: cell-based, human; conditions: PBMCs from non-Nod2 Crohn's disease patients; 50 nM; overnight (18 hours)
Method: as §1
as §1, with “3.” for “2.”, “peptidoglycans” for “muramyl peptides”, “(Nod2fs).” for “(Nod2 fs).”, “at 1 μg/ml) and LPS (100 ng/ml)” for “50 nM)”
as §2, §3

[4] = tested on: PBMCs from Nod2fs patients; experiment: Cytokine response of PBMCs from Crohn's disease patients homozygous for the Nod2fs frameshift mutation; assay type: cell-based, human; conditions: 50 nM, overnight (18 hours)
Method: as §1
as §1, with “3.” for “2.”, “peptidoglycans” for “muramyl peptides”, “(Nod2fs).” for “(Nod2 fs).”, “at 1 μg/ml) and LPS (100 ng/ml)” for “50 nM)”
as §2, §3

Compound	concentration at which activation of Nod2 was maximal ([1]; HEK293T co-transfection, NF-κB read-out, 10 pmoles per milliliter of culture medium)	activation of Nod2 (NF-κB-driven luciferase reporter) [1]	cytokine response (IL-1β, IL-10, TNFα, intracellular IL-1α) to muramyl peptides [2]	cytokine response (IL-1β, IL-10, TNFα, intracellular IL-1α) to muramyl peptides [3]	cytokine response (IL-1β, IL-10, TNFα, intracellular IL-1α) to muramyl peptides [4]
CC(=O)N[C@H]1C(O)O[C@H](CO)[C@@H](O)[C@@H]1O[C@H](C)C(=O)N[C@@H](C)C(=O)N[C@H](CCC(=O)O)C(N)=O (mixture of isomers) [MDP, muramyl dipeptide]	10 nM	activated Nod2 with similar efficiency	potent activators	still reacted	not stimulated
M-TriLys	–	activated Nod2 with similar efficiency	potent activators	still reacted	not stimulated
diaminopimelic acid (DAP)-containing muramyl tripeptide [M-TriDAP]	–	failed to activate Nod2	efficiently stimulated; also recorded: globally as potent as MDP	efficiently stimulated; also recorded: globally as potent as MDP	failed to induce cytokine response; also recorded: unable to stimulate
